Patent US20060110376A1, “MDA-7 and free radicals in the treatment of cancer” (priority 2002, published 2006)

Assays:
[1] = system: RCC cell lines A498 and UOK121N; test: Cell death (Giemsa staining, trypan blue); format: cell-based, human; details: 10 mM N-acetyl cysteine 1 h before As2O3
Method: Cells were plated in 6 well plates (˜5×10^4 cells/well) and 24 h later treated with GST, GST-MDA-7 (both 0.5 nM) and As2O3 (0.5 μM) as indicated. Where indicated, cells were pre-treated with 10 mM N-acetyl cysteine 1 h prior to addition of As2O3. Cells were isolated 96 h after GST-MDA-7 treatment. Cell death was determined on isolated fixed cells by Giemsa staining for apoptosis and necrosis (presented as a single value) as described (30). Panel A. UOK121N cells. Panel B. A498 cells. […]
Assessment of Apoptosis and Cell Death. […] For each condition, 10 randomly selected fields per slide were evaluated, encompassing at least 15000 cells (Dai et al., 2002, Cell Cycle 1:143-152; Qiao et al., 2001, Mol. Biol. Cell 12:2629-2645). To confirm the results of morphologic analysis, in some cases cells were also evaluated by TUNEL staining and oligonucleosomal DNA fragmentation assay as follows; staining, cytospin slides were fixed with 4% formaldehyde/PBS for 10 min, treated with acetic acid/ethanol (1:2) for 5 min, and incubated with terminal transferase reaction mixture containing 1× terminal transferase reaction buffer, […] terminal transferase, 2.5 mM CoCl2, and 2 pmol fluorescein-12-dUTP (Boehringer Mannheim, Indianapolis, Ind.) at 37° C. for 1 h. […]
Assessment of Cell Viability. […] Cells (˜400) were counted in all four fields of a hemocytometer.

RT2 cells = test: MTT growth and trypan blue viability with NAC or Ad.Bcl-XL; format: cell-based, rat; details: 10 mM NAC 30 min before 6 Gy; Ad.mda-7 25 m.o.i.
Method: FIG. 15A-D. Ad.mda-7 reduces the expression of Bcl-XL and increases the levels of BAX, consistent with a causal role of Bcl-XL expression in the radiosensitizing effect. Cells were cultured for 24 h after plating then infected with Ad.mda-7 or CMV control viruses (25 m.o.i.). The cells were irradiated (6 Gy) 24 hours after infection. Cells were isolated 96 h after irradiation and processed. Panel A. Ad.mda-7 and radiation suppress the expression of Bcl-XL and enhance BAX levels in RT2 cells 96 h after irradiation. Cells were processed for SDS PAGE and immunoblotting. A representative study (n=3). Panel B. RT2 cells were cultured for 24 h then infected with Ad.mda-7 or CMV control viruses at 25 m.o.i. The cells were irradiated (6 Gy) 24 hours after infection. Cells were isolated 96 h after irradiation and the integrity of nuclear DNA under each condition determined. Data are from two representative experiments. Panel C. […] Cells were processed 96 h after irradiation and cell viability determined via trypan blue exclusion assay. […]
MIT Assay for Determination of Cellular Viability. […] The cytotoxicity of the various treatments was assessed four days after irradiation by measurement of cell viability by use of the MTT assay, as described previously (Mosmann, 1983, J. Immunol. Methods 65:55-63). The plates were read on a Dynatech MR600 Microplate Reader at 540 nm. […]

With `CC(=O)N[C@@H](CS)C(=O)O` [NAC, N-acetyl-cysteine] the “effect of N-acetyl-cysteine on cell killing by GST-MDA-7 + arsenic trioxide” value [1] was “significantly reduced cell killing” and the “effect of NAC on Ad.mda-7 + radiation cell killing and proliferation” value (RT2 cells) was “abolished the enhancement in cell killing and reduction in proliferation”.
